Assays:
[1] = system: UVB-induced wrinkle formation; assay: Example 6: UVB-induced skin wrinkling; format: in vivo, Skh-1 hairless mice; conditions: UVB + 0.1% in 25% DMSO + 75% ethanol, 100 μl on back skin three times weekly, 10 weeks; category 0 (no wrinkle) to 4 (severe wrinkle)
[2] = system: UVB-induced vessel dilation; assay: Example 6: dermal blood vessel area (CD31 staining) after UVB; format: in vivo, Skh-1 hairless mice; conditions: UVB + 0.1% in 25% DMSO + 75% ethanol, 100 μl on back skin three times weekly, 10 weeks; dermis
[3] = system: back skin of mice; assay: Example 5: skin irritation score on back skin; format: in vivo, mice (FVB strain); conditions: 0.1% in 25% DMSO + 75% ethanol, 5 μl on back skin, score 0 (no erythema) to 4
Method: The hair of the back skin of mice (FVB strain, female, 7 weeks of age, n=3/group) was clipped by an electric clipper on day 0. 5 μl of test sample solution (˜1 cm diameter) was applied on the back skin. After 24 hours (day 1), skin irritation was measured on the basis of a scoring system (0: no erythema; 1: very slight erythema; 2: well-defined erythema; 3: moderate erythema; 4: several erythema and edema) and a second dose administered. After a second 24 hours (day 2), skin irritation was measured and a third dose administered. After a third 24 hours (day 3), skin irritation was again measured.

[4] = system: caspase-9 (−/−) null fibroblasts; conditions: cited from earlier work
[5] = system: UVB-irradiated mice ears; assay: Example 2: ear thickness on UVB-exposed skin; format: in vivo, mice (Swiss Webster strain); conditions: 1% in DMSO; for Left ear thickness (mean): UVB 80 mJ/cm^2, 5 μl on days 0, 1, 2
Method: The ear thickness of mice (Swiss Webster strain, male, 7 weeks of age, n=3/group) was measured with a thickness gauge (Mitsutoyo Corp.) on day 0. After measuring the thickness of both ears, both ears were UVB-irradiated (80 mJ/cm^2). 5 μl of 1% ucf-101 in DMSO was applied to the left ear and 5 μl of DMSO was applied to the right ear. After 24 hours (day 1), ear thickness was measured and a second dose administered (left ear 1% ucf-101 in DMSO; right ear: DMSO). After a second 24 hours (day 2), ear thickness was again measured and a third dose administered (left ear 1% ucf-101 in DMSO; right ear: DMSO). Ear thickness was then monitored over four additional consecutive days (days 3-6).

[6] = system: mice ears; assay: Example 4: effects of test samples on ear thickness; format: in vivo, mice (FVB strain); conditions: 0.1% in 25% DMSO + 75% ethanol, 10 μl on days 0, 1, 2
Method: Control thickness of mice ears (FVB strain, female, 7 weeks of age, n=3/group) was measured with a thickness gauge (Mitsutoyo Corp.) on day 0. After measuring the thickness of both ears, 10 μl of test sample solution was applied to the left ear and 10 μl of solvent was applied to the right ear. After 24 hours (day 1), ear thickness was measured and a second dose administered (left ear: test solution, right ear: solvent). After a second 24 hours (day 2), ear thickness was measured and a third dose administered (left ear: test solution, right ear: solvent).

[7] = system: UVB-induced wrinkle formation; assay: Example 3: UVB-induced skin wrinkling; format: in vivo, hairless Skh-1 mice; conditions: 100 μl on back skin three times weekly, 10 weeks, category 0 (no wrinkle) to 4 (severe wrinkle)
Method: (§1) Five groups of mice (7-week-old female hairless Skh-1 mice, n=3/group) were used: group 1: UVB+1% ucf-101 in DMSO; group 2: UVB+DMSO control; group 3: UVB+0.1% ucf-101 in acetone; group 4: UVB+acetone control; group 5: no UVB control.
(§2) Groups 1, 2, 3 and 4 were exposed to UVB irradiation using fluorescent lamps (Southern New England Ultraviolet) to deliver 0.35 mW/cm^2 at the dorsal skin surface of the mice. After irradiation, the indicated samples (100 μl each) for each group were applied to the back skin. This procedure was repeated three times weekly for ten weeks, to simulate chronic UVB exposure. […] The total cumulative dose was 6.54 J/cm^2 UVB.
(§3) After 10 weeks, skin wrinkling was evaluated using five categories (0: no wrinkle; 1: slight wrinkle; 2: clear wrinkle; 3: strong wrinkle; 4: severe wrinkle). Mice of group 1 and group 2 were sacrificed and back skin samples were snap-frozen in liquid nitrogen. Immunohistochemical staining was performed on 7-micrometer frozen sections using a monoclonal rat anti-mouse CD31 antibody (BD Pharmingen). Representative sections were obtained from UVB irradiated mice and were analyzed using a Nikon E-600 microscope. Images were captured with a Spot digital camera (Diagnostic Instruments), and morphometric analyses were performed using the IP-LAB software. Areas occupied by blood vessels were determined in the dermis.

[8] = system: mice ears; assay: Example 1: effect on ear thickness (skin irritancy); format: in vivo, mice (FVB strain); conditions: for Left ear thickness (mean): 10 μl on left ear
Method: Control thickness of mice ears (FVB strain, male, 7 weeks of age, n=3/group) was measured with a thickness gauge (Mitsutoyo Corp.). After measuring the thickness of both ears, 10 μl of ucf-101 solution (1.0% or 0.1%) was applied to the left ear and 10 μl of solvent was applied to the right ear. Ear thickness was measured for three consecutive days after administration.

[9] = system: UVB-induced vessel dilation; assay: Example 3: dermal blood vessel area (CD31 staining) after UVB; format: in vivo, hairless Skh-1 mice; conditions: UVB + 1% in DMSO, 100 μl on back skin three times weekly, 10 weeks; dermis
Method: as §1, §2, §3

[10] = molecular target: T1, Omi/HtrA2 (His-Omi 134-458) (Homo sapiens, UniProt O43464); conditions: cited from earlier work
T1 construct: His
T1 sequence (O43464 134-458): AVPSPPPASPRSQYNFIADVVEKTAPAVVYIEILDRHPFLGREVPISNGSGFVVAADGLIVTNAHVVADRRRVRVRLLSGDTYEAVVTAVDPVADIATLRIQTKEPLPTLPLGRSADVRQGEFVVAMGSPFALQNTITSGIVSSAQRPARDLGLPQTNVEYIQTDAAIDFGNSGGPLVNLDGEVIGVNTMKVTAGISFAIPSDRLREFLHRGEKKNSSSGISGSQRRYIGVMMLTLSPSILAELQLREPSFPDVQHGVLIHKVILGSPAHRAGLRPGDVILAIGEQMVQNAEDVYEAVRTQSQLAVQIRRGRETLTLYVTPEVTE

[11] = system: various other serine proteases; conditions: various other serine proteases tested; cited from earlier work
[12] = molecular target: T2, caspase 4 (Homo sapiens, UniProt P49662); conditions: cited from earlier work
T2 sequence (P49662 81-270 limits assumed): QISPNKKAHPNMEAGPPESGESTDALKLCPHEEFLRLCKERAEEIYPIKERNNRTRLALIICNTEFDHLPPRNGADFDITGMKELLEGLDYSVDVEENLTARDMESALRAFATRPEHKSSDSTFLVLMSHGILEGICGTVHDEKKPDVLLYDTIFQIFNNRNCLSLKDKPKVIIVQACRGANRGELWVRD
T2 sequence (P49662 290-377 limits assumed): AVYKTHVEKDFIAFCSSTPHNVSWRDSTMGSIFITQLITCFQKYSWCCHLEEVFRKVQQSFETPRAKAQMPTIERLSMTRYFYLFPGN

[13] = molecular target: T3, caspase 7 (Homo sapiens, UniProt P55210); conditions: cited from earlier work
T3 sequence (P55210 24-198 limits assumed): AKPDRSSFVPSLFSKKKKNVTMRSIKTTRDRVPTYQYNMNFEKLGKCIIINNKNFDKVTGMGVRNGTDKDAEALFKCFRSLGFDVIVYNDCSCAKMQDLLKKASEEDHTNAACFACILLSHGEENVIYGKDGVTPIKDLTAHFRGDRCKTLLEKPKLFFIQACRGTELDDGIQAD
T3 sequence (P55210 207-303 limits assumed): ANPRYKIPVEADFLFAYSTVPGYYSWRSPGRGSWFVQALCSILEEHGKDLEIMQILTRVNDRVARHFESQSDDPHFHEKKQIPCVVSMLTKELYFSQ

[14] = molecular target: T4, caspase 1 (Homo sapiens, UniProt P29466); conditions: cited from earlier work
T4 sequence (P29466 120-297 limits assumed): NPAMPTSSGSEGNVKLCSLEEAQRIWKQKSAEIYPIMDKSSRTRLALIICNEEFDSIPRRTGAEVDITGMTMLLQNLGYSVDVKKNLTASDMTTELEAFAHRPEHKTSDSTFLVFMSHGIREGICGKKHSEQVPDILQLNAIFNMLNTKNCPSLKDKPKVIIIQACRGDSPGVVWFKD
T4 sequence (P29466 317-404 limits assumed): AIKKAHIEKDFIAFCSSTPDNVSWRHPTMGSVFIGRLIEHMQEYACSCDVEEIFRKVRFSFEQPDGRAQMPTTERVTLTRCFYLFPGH

[15] = molecular target: T5, caspase 3 (Homo sapiens, UniProt P42574); conditions: cited from earlier work
T5 sequence (P42574 29-175 limits assumed): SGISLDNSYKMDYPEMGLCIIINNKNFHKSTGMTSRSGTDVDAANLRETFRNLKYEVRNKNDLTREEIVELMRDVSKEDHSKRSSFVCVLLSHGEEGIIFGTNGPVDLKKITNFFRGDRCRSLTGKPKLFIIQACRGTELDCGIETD
T5 sequence (P42574 176-277 limits assumed): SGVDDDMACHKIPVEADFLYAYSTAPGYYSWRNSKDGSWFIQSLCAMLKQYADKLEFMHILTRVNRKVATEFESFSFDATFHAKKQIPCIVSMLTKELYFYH

Compound: CC(C)C[C@H](CC(=O)NO)C(=O)N[C@@H](Cc1ccc2ccccc2c1)C(=O)N[C@@H](C)C(N)=O [TAPI-0]
- Wrinkle category (mean) [1]: 1.00
- Percent of vessel area (mean) [2]: 8.9%

Compound: NC[C@H]1CC[C@H](C(=O)O)CC1 [Tranexamic acid]
- skin irritation score ([3]; day 0): 0
- skin irritation score ([3]; day 1): 0
- skin irritation score ([3]; day 2): 0
- skin irritation score ([3]; day 3): 0
- Wrinkle category (mean) [1]: 2.00
- Percent of vessel area (mean) [2]: 8.7%

Compound: O=C1C(=Cc2ccc(-c3ccccc3[N+](=O)[O-])o2)C(=O)N(c2ccccc2)C(=S)N1c1ccccc1 [Ucf-101]
- block of Omi/HtrA2 induced cell death [4]: block Omi/HtrA2 induced cell death
- Left ear thickness (mean) ([5]; day 0 (before UVB and application)): 31.0 ×0.01 mm
- Left ear thickness (mean) ([5]; day 1): 36.3 ×0.01 mm
- Left ear thickness (mean) ([5]; day 2): 40.0 ×0.01 mm
- Left ear thickness (mean) ([5]; day 3): 42.3 ×0.01 mm
- Left ear thickness (mean) ([5]; day 4): 42.7 ×0.01 mm
- Left ear thickness (mean) ([5]; day 5): 39.3 ×0.01 mm
- Left ear thickness (mean) ([5]; day 6): 38.3 ×0.01 mm
- ear thickness (irritancy) compared to control ([5]; UVB-exposed ears): did not increase ear thickness
- Left ear thickness (mean) ([6]; day 0 (before application)): 25.7 ×0.01 mm
- Left ear thickness (mean) ([6]; day 1): 26.3 ×0.01 mm
- Left ear thickness (mean) ([6]; day 2): 27.3 ×0.01 mm
- Left ear thickness (mean) ([6]; day 3): 28.3 ×0.01 mm
- Wrinkle category (mean) ([7]; UVB + 0.1% in acetone): 1.67
- Wrinkle category (mean) ([7]; UVB + 1% in DMSO): 1.33
- Left ear thickness (mean) ([8]; 0.1% in acetone, day 0 (before application)): 29.0 ×0.01 mm
- Left ear thickness (mean) ([8]; 0.1% in acetone, day 1): 30.0 ×0.01 mm
- Left ear thickness (mean) ([8]; 0.1% in acetone, day 2): 29.3 ×0.01 mm
- Left ear thickness (mean) ([8]; 0.1% in acetone, day 3): 29.0 ×0.01 mm
- irritancy (ear thickness compared to solvent alone) ([8]; 1% in DMSO or 0.1% in acetone): not an irritant
- Left ear thickness (mean) ([8]; 1% in DMSO, day 0 (before application)): 28.0 ×0.01 mm
- Left ear thickness (mean) ([8]; 1% in DMSO, day 1): 28.7 ×0.01 mm
- Left ear thickness (mean) ([8]; 1% in DMSO, day 2): 28.7 ×0.01 mm
- Left ear thickness (mean) ([8]; 1% in DMSO, day 3): 28.3 ×0.01 mm
- skin irritation score ([3]; day 0): 0
- skin irritation score ([3]; day 1): 0
- skin irritation score ([3]; day 2): 0
- skin irritation score ([3]; day 3): 0
- Percent of vessel area (mean) [9]: 7.1%
- IC50 [10]: 9.5 µM
- Wrinkle category (mean) [1]: 1.00
- Percent of vessel area (mean) [2]: 4.7%
- IC50 [11]: 200 µM

Compound: Ac-YVAD-CHO
- Ki [12]: ~0.01 µM
- Ki [13]: ≥ 50 µM
- Ki [14]: ~0.01 µM
- Ki [15]: ≥ 50 µM

Compound: zVAD-FMK
- inhibition [12]: inhibits
- inhibition [13]: inhibits
- inhibition [14]: inhibits
- inhibition [15]: inhibits
- Wrinkle category (mean) [1]: 1.67
- Percent of vessel area (mean) [2]: 8.8%

Reference: patent US20050250799A1, “Protease inhibitors for treatment of wrinkles” (priority 2004, published 2005)
